How the values were obtained:
Format in all cases: in vivo
Tetranychus urticae Koch [1] = experiment: Mite adulticide test (MI); details: 120 h, 1000 ppm spray to run off on cowpea leaves, adult mites placed 1 day after treatment, live mites counted five days later, read-out: Percent Control MI (mite adulticide)
Description: In the following examples, a stock solution for the compounds of the present invention was prepared at 3000 ppm by dissolving 0.24 gram of each compound to be tested in eight mL of acetone and adding 72 mL of distilled water plus three drops of ethoxylated sorbitan monolaurate, a wetting agent. […] For each example that follows, the stock solution was used and the specificized dilutions made. All the tests discussed below, which involved treatment with compounds of this invention, were always repeated with controls, in which the active compound was not provided, to permit a comparison upon which the percent control was calculated. One day before treatment of cowpea primary leaves with the test solutions, a “Figure 8” configuration of tree tanglefoot was applied to each of two cowpea primary leaves, one from each of two plants in a pot. The circle nearer the stem was designated for the mite ovicide test and the circle further from the stem was designated for the mite adulticide test. Groups of adult mites (Tetranychus urticae Koch) were transferred into ovicide circles one day before treatment and the females were allowed to deposit eggs until one hour before treatment, at which point all the adults were removed. The plants were then sprayed to run off with a 1000 ppm of solution diluted from the 3000 ppm stock solution. One day following treatment of the plants with the test solution, groups of approximately 25 adult mites were transferred into the adulticide rings. Five days later, these rings were examined for live mites remaining on the leaves. The percent control was estimated based on the number of mites surviving on the control plants.

Tetranychus urticae Koch [2] = experiment: Mite ovicide test (MIOV); details: 216 h, 1000 ppm spray to run off on cowpea leaves, unhatched eggs examined nine days following treatment, read-out: Percent Control MIOV (mite ovicide)
Description: In the following examples, a stock solution for the compounds of the present invention was prepared at 3000 ppm by dissolving 0.24 gram of each compound to be tested in eight mL of acetone and adding 72 mL of distilled water plus three drops of ethoxylated sorbitan monolaurate, a wetting agent. […] For each example that follows, the stock solution was used and the specificized dilutions made. All the tests discussed below, which involved treatment with compounds of this invention, were always repeated with controls, in which the active compound was not provided, to permit a comparison upon which the percent control was calculated. One day before treatment of cowpea primary leaves with the test solutions, a “Figure 8” configuration of tree tanglefoot was applied to each of two cowpea primary leaves, one from each of two plants in a pot. The circle nearer the stem was designated for the mite ovicide test and the circle further from the stem was designated for the mite adulticide test. Groups of adult mites (Tetranychus urticae Koch) were transferred into ovicide circles one day before treatment and the females were allowed to deposit eggs until one hour before treatment, at which point all the adults were removed. The plants were then sprayed to run off with a 1000 ppm of solution diluted from the 3000 ppm stock solution. Nine days following treatment the ovicide rings were examined for unhatched eggs and living immature mites. The percent control was estimated based on the number of unhatched eggs.

Helicoverpa virescens = experiment: Tobacco budworm test (TB); details: Heliothis virescens, 336 h; 0.2 mL of 3000 ppm stock solution on diet cell surface; second instar larva; after 14 days; corrected by Abbott's formula; read-out: Percent Control TB (tobacco budworm)
Description: In the following examples, a stock solution for the compounds of the present invention was prepared at 3000 ppm by dissolving 0.24 gram of each compound to be tested in eight mL of acetone and adding 72 mL of distilled water plus three drops of ethoxylated sorbitan monolaurate, a wetting agent. […] For each example that follows, the stock solution was used and the specificized dilutions made. All the tests discussed below, which involved treatment with compounds of this invention, were always repeated with controls, in which the active compound was not provided, to permit a comparison upon which the percent control was calculated.
For each compound tested, 0.2 mL of the stock solution prepared asdescribed above, was pipetted onto the surface of each of five diet cells, allowed to spread over the surfaces and air dried for two hours. Then a second instar Helicoverpa virescens larva was introduced into each cell. After 14 days, the number of living larvae was determined for each treatment and percent control, corrected by Abbott's formula, was calculated.

Compound | pest or weed control at 1000 ppm (Tetranychus urticae Koch [1]) | pest or weed control at 1000 ppm (Tetranychus urticae Koch [2]) | pest or weed control at 3000 µg/mL (Helicoverpa virescens)
CC/C(=N\Nc1cc(-c2ccccc2)ccc1OC)[N+](=O)[O-] [Compound 1, Propanal, 1-nitro, (4-methoxy-[1,1′-biphenyl]-3-yl)hydrazone] | 100% | 100% | 64%
COc1ccc(-c2ccccc2)cc1N/N=C/[N+](=O)[O-] [Compound 2] | 0% | 0% | 100%
CCC/C(=N\Nc1cc(-c2ccccc2)ccc1OC)[N+](=O)[O-] [Compound 3] | 100% | 100% | 0%
COc1ccc(-c2ccccc2)cc1N/N=C(/C(C)C)[N+](=O)[O-] [Compound 4] | 100% | 0% | 0%
CC/C(=N\Nc1cccc(-c2ccccc2)c1)[N+](=O)[O-] [Compound 5] | 100% | 0% | 0%
CCCCCOc1ccc(-c2ccccc2)cc1N/N=C(/CC)[N+](=O)[O-] [Compound 6] | 100% | 30% | 0%
CC/C(=N/Nc1cc(-c2ccccc2)ccc1C)[N+](=O)[O-] [Compound 7] | 100% | 70% | 0%
CC(C)C/C(=N\Nc1cccc(-c2ccccc2)c1)[N+](=O)[O-] [Compound 8] | 100% | 0% | 40%
CC/C(=N/Nc1cc(OC)ccc1-c1ccccc1)[N+](=O)[O-] [Compound 9] | 70% | 70% | 14%
C/C(=N\Nc1ccc2c(c1)Cc1ccccc1-2)[N+](=O)[O-] [Compound 10] | 0% | 0% | 0%
CC/C(=N\Nc1ccc2c(c1)c1ccccc1n2CC)[N+](=O)[O-] [Compound 11] | 30% | 30% | 57%
CC/C(=N/Nc1ccc(Cl)nc1)[N+](=O)[O-] [Compound 12] | 100% | 70% | 100%
